Results from US20250333406A1, “SULFONYL CYCLIC DERIVATIVES, AND COMPOSITIONS AND METHODS THEREOF” (Lysoway Therapeutics, Inc., priority 2023, published 2025).

Tested on: TFEB
Assay: TFEB Nuclear Translocation Assay
Assay type: cell-based
Conditions: read-out: EC50 of TFEB activation

SMILES	EC50
CC(C)S(=N)(=O)c1ccc(S(=O)(=O)n2nc(N3CCN(c4ncc(F)cn4)CC34CC4)c3c(Cl)cccc32)cc1 (stereo not drawn) [Compound 58, [4-[4-chloro-3-[7-(5-fluoropyrimidin-2-yl)-4,7-diazaspiro [2.5]octan-4-yl]indazol-1-yl]sulfonylphenyl]-imino-isopropyl-oxo-λ6-sulfane]	≤ 1 µM
CC(C)S(=O)(=O)c1ccc(S(=O)(=O)n2nc(N3CCN(C(=O)C(F)(F)F)C[C@H]3C(F)(F)F)c3c(Cl)cccc32)cc1 (single isomer, unassigned) [Compound 71]	≤ 1 µM
O=S(=O)(c1ccn(S(=O)(=O)C2CC2)c1)n1nc(N2CCN(c3ncc(F)cc3F)CC23CC3)c2c(F)ccc(F)c21 [Compound 145, 1-(1-cyclopropylsulfonylpyrrol-3-yl) sulfonyl-3-[7-(3,5-difluoro-2-pyridyl)-4,7-diazaspiro [2.5]octan-4-yl]-4,7-difluoro-indazole]	≤ 1 µM
CC(C)S(=O)(=O)c1ccc(S(=O)(=O)n2nc(N3CCN(c4ncc(Cl)cn4)CC34CC4)c3c(Cl)cc(F)cc32)s1 [Compound 36, 4-chloro-3-(7-(5-chloropyrimidin-2-yl)-4,7-diazaspiro [2.5]octan-4-yl)-6-fluoro-1-((5-(isopropylsulfonyl)thiophen-2-yl)sulfonyl)-1H-indazole]	≤ 1 µM
CN(C)S(=O)(=O)n1ccc(S(=O)(=O)n2nc(N3CCN(c4ncc(F)cn4)CC34CC4)c3c(F)cc(F)cc32)c1 [Compound 169, 3-[4,6-difluoro-3-[7-(5-fluoropyrimidin-2-yl)-4,7-diazaspiro [2.5]octan-4-yl]indazol-1-yl]sulfonyl-N, N-dimethyl-pyrrole-1-sulfonamide]	≤ 1 µM
CC(C)S(=O)(=O)c1nc(S(=O)(=O)n2nc(N3CCN(c4ncc(Cl)cc4F)CC34CC4)c3c(Cl)cccc32)cs1 [Compound 196, 4-((4-chloro-3-(7-(5-chloro-3-fluoropyridin-2-yl)-4,7-diazaspiro [2.5]octan-4-yl)-1H-indazol-1-yl)sulfonyl)-2-(isopropylsulfonyl) thiazole]	≤ 1 µM
O=S(=O)(c1ccc(OC(F)(F)F)cc1)n1nc(N2CCN(c3ncc(F)cn3)CC23CC3)c2c(Cl)cccc21 [Compound 117, 4-chloro-3-[7-(5-fluoropyrimidin-2-yl)-4,7-diazaspiro [2.5]octan-4-yl]-1-[4-(trifluoromethoxy)phenyl]sulfonyl-indazole]	≤ 1 µM
O=S(=O)(c1ccc(S(=O)(=O)n2nc(N3CCN(c4ncc(F)cn4)CC34CC4)c3c(Cl)cccc32)cc1)C(F)F [Compound 114, 4-chloro-1-[4-(difluoromethylsulfonyl)phenyl]sulfonyl-3-[7-(5-fluoropyrimidin-2-yl)-4,7-diazaspiro[2.5]octan-4-yl]indazole]	≤ 1 µM
CC(F)(F)c1ccc(S(=O)(=O)n2nc(N3CCN(c4ncc(F)cn4)CC34CC4)c3c(F)cccc32)cc1 [Compound 133, 1-[4-(1,1-difluoroethyl)phenyl]sulfonyl-4-fluoro-3-[7-(5-fluoropyrimidin-2-yl)-4,7-diazaspiro [2.5]octan-4-yl]indazole]	≤ 1 µM
CC(C)S(=O)(=O)c1ccc(S(=O)(=O)n2nc(N3CCN(c4ncc(Cl)cn4)CC3C3CC3)c3c(Cl)cccc32)s1 (stereo not drawn) [Compound 5, 4-chloro-3-[4-(5-chloropyrimidin-2-yl)-2-cyclopropyl-piperazin-1-yl]-1-[(5-isopropylsulfonyl-2-thienyl)sulfonyl]indazole]	≤ 1 µM
CC(C)S(=O)(=O)c1ccc(S(=O)(=O)n2nc(N3CCC(Cl)(Cl)CC34CC4)c3c(Cl)cccc32)cc1 [Compound 54, 4-chloro-3-(7,7-dichloro-4-azaspiro [2.5]octan-4-yl)-1-(4-isopropylsulfonylphenyl) sulfonyl-indazole]	≤ 1 µM
O=S(=O)(c1ccc(C2(C(F)(F)F)CC2)cc1)n1nc(N2CCN(c3ncc(F)cn3)CC23CC3)c2c(Cl)cccc21 [Compound 101, 4-chloro-3-[7-(5-fluoropyrimidin-2-yl)-4,7-diazaspiro [2.5]octan-4-yl]-1-[4-[1-(trifluoromethyl)cyclopropyl]phenyl]sulfonyl-indazole]	≤ 1 µM
